# Measurements from publication PMC7808739, “Repurposing existing drugs: identification of SARS-CoV-2 3C-like protease inhibitors” (Journal of Enzyme Inhibition and Medicinal Chemistry, 2021).
# Structures can show the parent of a compound that is named as a salt. Where two headings read alike, the source gives them in different places.
# Target: SARS-CoV-2 3CLpro (Severe acute respiratory syndrome coronavirus 2, UniProt P0DTD1)
# Assay: biochemical
# Type: biochemical
# Details: for SARS-CoV-2 3CLpro inhibitor grade in words: grading by IC50 in the IQF peptide assay
# [1] = IC50, inhibition of SARS-CoV-2 3CLpro activity
# [2] = 0.25 µM protease, 1.25 µM IQF peptide substrate, drugs 0–100 µM preincubated 1 h at 37 °C, then 3 h, N = 3, mean ± SEM, read-out: IC50, inhibition of SARS-CoV-2 3CLpro activity
Compound,IC50 [1] [µM],IC50 [2] [µM],SARS-CoV-2 3CLpro inhibitor grade in words
Oc1ncnc2[nH]ncc12 [Allopurinol],3.77,,
NC(=O)C[S@@+]([O-])C(c1ccccc1)c1ccccc1 [Armodafinil],,17.9,
C=C(c1ccc(C(=O)O)cc1)c1cc2c(cc1C)C(C)(C)CCC2(C)C [Bexarotene],,26.5,moderate
CC(=O)Oc1ccc(C(c2ccc(OC(C)=O)cc2)c2ccccn2)cc1 [Bisacodyl],17.5,,
CN(Cc1ccc(C(C)(C)C)cc1)Cc1cccc2ccccc12 [Butenafine hydrochloride],5.4,,
COCC1=C(C(=O)OC(C)OC(=O)OC(C)C)N2C(=O)[C@@H](NC(=O)/C(=N\OC)c3csc(N)n3)[C@H]2SC1 (stereo partly shown) [Cefpodoxime proxetil],32.4,,moderate
O=C(O)COCCN1CCN(C(c2ccccc2)c2ccc(Cl)cc2)CC1 (stereo not shown) [Cetirizine],25.6,,
CCCCCCCCCCCCCCCC(=O)O[C@@H]1[C@@H](O)[C@@H](O)[C@@H]([C@H](NC(=O)[C@@H]2C[C@@H](CCC)CN2C)[C@H](C)Cl)O[C@@H]1SC.Cl [Clindamycin palmitate hydrochloride],,33.2,moderate
CCC(=O)O[C@]1(C(=O)CCl)[C@@H](C)C[C@H]2[C@@H]3CCC4=CC(=O)C=C[C@]4(C)[C@@]3(F)[C@@H](O)C[C@@]21C [Clobetasol propionate],,18.1,
C=C(CC)C(=O)c1ccc(OCC(=O)O)c(Cl)c1Cl [Ethacrynic acid],,1.11,
CC(C)C[C@H](NC(=O)[C@@H](COC(C)(C)C)NC(=O)[C@H](Cc1ccc(O)cc1)NC(=O)[C@H](CO)NC(=O)[C@H](Cc1c[nH]c2ccccc12)NC(=O)[C@H](Cc1cnc[nH]1)NC(=O)[C@@H]1CCC(=O)N1)C(=O)N[C@@H](CCCNC(=N)N)C(=O)N1CCC[C@H]1C(=O)NNC(N)=O [Goserelin acetate],12,,
COc1ccc2cc([C@H](C)C(=O)O)ccc2c1 [Naproxen],3.45,,
O=C(c1ccc(OCCN2CCCCC2)cc1)c1c(-c2ccc(O)cc2)sc2cc(O)ccc12 [Raloxifene hydrochloride],,5.61,
C=CC[N+]1([C@H]2C[C@H]3[C@@H]4CC[C@H]5C[C@H](O)[C@@H](N6CCOCC6)C[C@]5(C)[C@H]4CC[C@]3(C)[C@H]2OC(C)=O)CCCC1 [Rocuronium bromide],,17.5,
CC(C)(C)NC(=O)[C@@H]1C[C@@H]2CCCC[C@@H]2CN1C[C@@H](O)[C@H](Cc1ccccc1)NC(=O)[C@H](CC(N)=O)NC(=O)c1ccc2ccccc2n1 [Saquinavir mesylate],9.92,,
"CO[C@H]1C[C@@H]2CC[C@@H](C)[C@@](O)(O2)C(=O)C(=O)N2CCCC[C@H]2C(=O)O[C@H]([C@H](C)C[C@@H]2CC[C@@H](O)[C@H](OC)C2)CC(=O)[C@H](C)/C=C(\C)[C@@H](O)[C@@H](OC)C(=O)[C@H](C)C[C@H](C)/C=C/C=C/C=C/1C [Sirolimus (Rapamycin), Sirolimus]",,22.3,
N[C@@H]1C[C@H]1c1ccccc1 [Tranylcypromine hydrochloride],8.64,,
Colistin sulphate,,23.2,moderate
